In patent publication US20250186450A1, “COMBINATION THERAPY COMPRISING DGK INHIBITORS and PD-1/PD-L1 INHIBITORS” (Incyte Corporation, priority 2023, published 2025):

Columns and labels:
DGKζ = DGKζ (Homo sapiens (Human), UniProt Q13574); assay: In vitro DGKζ inhibition assay (ADP-Glo); type: biochemical; conditions: 0.4 nM DGKζ, 30 μM ATP, 20 μM DLG
Method: (§1) The DGKα and DGKζ biochemical reactions were performed using His-tagged human recombinant enzymes (Signal Chem, DGKα, #D21-10BH; DGKζ, #D30-10H)) and DLG (Dilauroyl-sn-glycerol) lipid substrate (Signal Chem, #D430-59). ADP-Glo assay was performed using ADP-Glo™ kinase Assay kit (Promega, #V9104). The reactions were carried out in assay buffer containing 40 mM Tris, pH 7.5, 0.1% CHAPS, 0.1% Prionex, 40 mM NaCl, 5 mM MgCl2, 1 mM CaCl2, and 1 mM DTT. DGKα reactions contained 0.1 nM DGKα, 50 μM ATP, and 20 μM DLG. And DGKζ reactions contained 0.4 nM DGKζ, 30 μM ATP, and 20 μM DLG.
(§2) For compound inhibition studies, 40 nL test compound in DMSO was added to wells of white polystyrene plates in 384-well (Greiner, #784075) or 1536-well format (Greiner, #782075). Compounds were added with top concentration of 2 mM with 11 point, 3-fold dilution series. Enzyme solution (contains 2×DGK enzyme concentration in 1× assay buffer) was added to the plate in 2 μL/well volume, followed by 2 μL/well of substrate solution (contains 2× concentration of ATP and DLG substrate in 1× assay buffer). Plates were then centrifuged for 1 min at 1200 RPM and sealed or lidded. For 4 μL reaction volume, test compounds were therefore diluted 100× to final top concentration of 20 μM. After 90 minute incubation, reactions were quenched by addition of 2 μL/well Promega ADP-Glo Reagent, followed by centrifugation and lidding. After 60 min incubation, 2 μL/well Promega Kinase Detection Reagent was added, plates centrifuged, and incubated for 30 min. Plates were then read using Luminescence method on BMG PHERAstar FSX plate reader. Percent inhibition was calculated and IC50s were determined using 4-parameter fit in Genedata Screener. Labcyte Echo acoustic dispenser was used for compound addition, and Formulatrix Tempest liquid handler was used for all reagent dispenses.

DGKα = DGKα (Homo sapiens (Human), UniProt P23743); assay: In vitro DGKα inhibition assay (ADP-Glo); type: biochemical; conditions: 0.1 nM DGKα, 50 μM ATP, 20 μM DLG
Method: as §1, §2

Sequence of DGKζ (Q13574 whole entry): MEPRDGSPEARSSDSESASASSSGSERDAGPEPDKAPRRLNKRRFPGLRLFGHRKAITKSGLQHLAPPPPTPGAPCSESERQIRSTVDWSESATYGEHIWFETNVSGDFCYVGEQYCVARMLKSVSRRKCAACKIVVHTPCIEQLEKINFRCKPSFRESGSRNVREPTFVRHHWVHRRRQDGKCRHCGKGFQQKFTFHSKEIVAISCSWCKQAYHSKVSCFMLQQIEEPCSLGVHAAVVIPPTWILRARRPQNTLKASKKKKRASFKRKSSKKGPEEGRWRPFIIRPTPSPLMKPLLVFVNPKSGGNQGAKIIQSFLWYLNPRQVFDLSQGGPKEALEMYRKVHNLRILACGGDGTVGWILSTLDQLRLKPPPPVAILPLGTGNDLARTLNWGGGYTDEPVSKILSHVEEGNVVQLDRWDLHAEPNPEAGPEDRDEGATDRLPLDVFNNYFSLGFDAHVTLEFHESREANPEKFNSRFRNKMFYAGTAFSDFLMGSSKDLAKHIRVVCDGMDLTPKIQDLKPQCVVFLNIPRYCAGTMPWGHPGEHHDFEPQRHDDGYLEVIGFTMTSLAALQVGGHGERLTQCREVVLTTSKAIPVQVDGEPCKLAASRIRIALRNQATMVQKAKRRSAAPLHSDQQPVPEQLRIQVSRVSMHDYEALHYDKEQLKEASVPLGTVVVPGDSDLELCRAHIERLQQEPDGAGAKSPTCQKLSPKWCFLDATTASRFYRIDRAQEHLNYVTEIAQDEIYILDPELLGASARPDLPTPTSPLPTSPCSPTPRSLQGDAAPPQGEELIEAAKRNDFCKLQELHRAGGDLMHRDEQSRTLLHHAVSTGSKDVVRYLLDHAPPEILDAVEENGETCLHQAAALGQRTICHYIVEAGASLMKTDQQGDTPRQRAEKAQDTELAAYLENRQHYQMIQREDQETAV
Sequence of DGKα (P23743 whole entry): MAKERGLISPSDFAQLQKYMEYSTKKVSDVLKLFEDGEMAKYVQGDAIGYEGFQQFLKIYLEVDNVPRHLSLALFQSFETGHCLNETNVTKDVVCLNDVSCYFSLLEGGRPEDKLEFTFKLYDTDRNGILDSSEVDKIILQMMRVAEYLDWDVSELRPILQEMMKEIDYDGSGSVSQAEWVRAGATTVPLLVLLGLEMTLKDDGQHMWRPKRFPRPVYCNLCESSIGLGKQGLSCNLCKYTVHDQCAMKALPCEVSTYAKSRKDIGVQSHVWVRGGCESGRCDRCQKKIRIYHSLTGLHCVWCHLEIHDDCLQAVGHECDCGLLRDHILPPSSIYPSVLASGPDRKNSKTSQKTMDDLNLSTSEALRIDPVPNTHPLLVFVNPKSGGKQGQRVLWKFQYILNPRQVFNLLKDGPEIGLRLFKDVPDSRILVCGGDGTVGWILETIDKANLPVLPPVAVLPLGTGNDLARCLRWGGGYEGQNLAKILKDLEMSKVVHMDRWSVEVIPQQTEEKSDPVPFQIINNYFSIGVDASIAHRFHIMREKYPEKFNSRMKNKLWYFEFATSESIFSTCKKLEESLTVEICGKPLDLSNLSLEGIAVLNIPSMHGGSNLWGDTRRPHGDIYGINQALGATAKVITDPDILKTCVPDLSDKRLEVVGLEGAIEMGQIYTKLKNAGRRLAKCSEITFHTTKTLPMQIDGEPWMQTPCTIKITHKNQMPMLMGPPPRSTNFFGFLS

Structure (SMILES)	IC50 (DGKζ)	IC50 (DGKα)
CC[C@@H]1CN(c2cc3nncn3c3c2nc(C)n3C[C@@H]2CCCO2)[C@@H](C)CN1C(c1ccc(Cl)cc1)C1CC(F)(F)C1 (single isomer, unassigned) [Example 19]	≤ 20 nM	≤ 20 nM
C[C@@H]1CN(c2cc3nncn3c3c2ncn3C[C@@H]2CCCO2)[C@@H](C)CN1C(c1ccc(Cl)cc1)[C@@H]1CC1(F)F (single isomer, unassigned) [Example 18]	20 to 200 nM	≤ 20 nM
Cc1nc2c(N3C[C@@H](C)N(C(c4ccc(Cl)c(F)c4)C4CC(F)(F)C4)C[C@@H]3C)nc3nncn3c2n1C[C@@H]1CCCO1 (single isomer, unassigned) [Example 4]	≤ 20 nM	≤ 20 nM
C[C@@H]1CN(c2nc3nncn3c3c2ncn3C[C@@H]2CCCO2)[C@@H](C)CN1C(c1ccc(C(F)(F)F)cc1)C1CC(F)(F)C1 (single isomer, unassigned) [Example 6]	≤ 20 nM	≤ 20 nM
CC[C@@H]1CN(c2nc3nncn3c3c2ncn3C[C@@H]2CCCO2)[C@@H](C)CN1C(c1ccc(Cl)cc1)C1CC(F)(F)C1 (stereo partly drawn) [Example 13, 4-((2S,5R)-4-((4-Chlorophenyl)(3,3-difluorocyclobutyl)methyl)-5-ethyl-2-methylpiperazin-1-yl)-1-(((S)-tetrahydrofuran-2-yl)methyl)-1H-[1,2,4]triazolo[3,4-b]purine]	≤ 20 nM	≤ 20 nM
Cc1nc2c(N3C[C@@H](C)N(C(CC(C)C)c4ccc(Cl)c(F)c4)C[C@@H]3C)nc3nncn3c2n1C[C@@H]1CCCO1 (single isomer, unassigned) [Example 11]	≤ 20 nM	≤ 20 nM
C[C@@H]1CN(c2nc3nncn3c3c2ncn3C[C@@H]2CCCO2)[C@@H](C)CN1C(c1ccc(Cl)cc1)C1CC(F)(F)C1 (stereo partly drawn) [Example 12, 4-((2S,5R)-4-((4-Chlorophenyl)(3,3-difluorocyclobutyl)methyl)-2,5-dimethylpiperazin-1-yl)-1-(((S)-tetrahydrofuran-2-yl)methyl)-1H-[1,2,4]triazolo[3,4-b]purine]	≤ 20 nM	≤ 20 nM
Cc1nc2c(N3C[C@@H](C)N(C(c4ccc(C(F)(F)F)cc4)C4CC(F)(F)C4)C[C@@H]3C)cc3nncn3c2n1C[C@@H]1CCCO1 (single isomer, unassigned) [Example 17]	≤ 20 nM	≤ 20 nM
C[C@@H]1CN(c2nc3nncn3c3c2ncn3C[C@@H]2CCCO2)[C@@H](C)CN1C(c1ccc(Cl)cc1)[C@H]1CC1(F)F (single isomer, unassigned) [Example 8]	≤ 20 nM	≤ 20 nM
Cc1nc2c(N3C[C@@H](C)N(C(c4ccc(F)c(Cl)c4)C4CC(F)(F)C4)C[C@@H]3C)nc3nncn3c2n1C[C@@H]1CCCO1 (single isomer, unassigned) [Example 3]	≤ 20 nM	≤ 20 nM
Cc1nc2c(N3C[C@@H](C)N(Cc4ccc(C(F)(F)F)cc4F)C[C@@H]3C)nc3nncn3c2n1C[C@@H]1CCCO1 [Example 14, 4-((2S,5R)-4-(2-Fluoro-4-(trifluoromethyl)benzyl)-2,5-dimethylpiperazin-1-yl)-2-methyl-1-(((S)-tetrahydrofuran-2-yl)methyl)-1H-[1,2,4]triazolo[3,4-b]purine]	≤ 20 nM	≤ 20 nM

Results, then the compound that gave them:

IC50 (DGKζ)	IC50 (DGKα)	Structure (SMILES)
≤ 20 nM	≤ 20 nM	Cc1nc2c(N3C[C@@H](C)N(C(c4ccc(Cl)cc4)[C@@H]4CC4(F)F)C[C@@H]3C)nc3nncn3c2n1C[C@@H]1CCCO1 (single isomer, unassigned) [Example 9]
≤ 20 nM	≤ 20 nM	C[C@@H]1CN(c2nc3nncn3c3c2ncn3C[C@@H]2CCCO2)[C@@H](C)CN1C(c1ccc(Cl)cc1)[C@@H]1CC1(F)F (single isomer, unassigned) [Example 7]
≤ 20 nM	≤ 20 nM	Cc1nc2c(N3C[C@@H](C)N(C(c4ccc(Cl)cc4)c4ccc(Cl)cc4)C[C@@H]3C)nc3nncn3c2n1C[C@@H]1CCCO1 [Example 5, 4-((2S,5R)-4-(Bis(4-chlorophenyl)methyl)-2,5-dimethylpiperazin-1-yl)-2-methyl-1-(((S)-tetrahydrofuran-2-yl)methyl)-1H-[1,2,4]triazolo[3,4-b]purine]
≤ 20 nM	≤ 20 nM	C[C@@H]1CN(c2cc3nncn3c3c2ncn3C[C@@H]2CCCO2)[C@@H](C)CN1C(c1ccc(Cl)cc1)C1CC(F)(F)C1 (single isomer, unassigned) [Example 22]
≤ 20 nM	≤ 20 nM	CC(C)CC(c1ccc(Cl)cc1)N1C[C@H](C)N(c2nc3nncn3c3c2ncn3C[C@@H]2CCCO2)C[C@H]1C (single isomer, unassigned) [Example 10]
≤ 20 nM	≤ 20 nM	Cc1nc2c(N3C[C@@H](C)N(C(c4ccc(Cl)cc4)C4CC(F)(F)C4)C[C@@H]3C)cc3nncn3c2n1C[C@@H]1CCCO1 (single isomer, unassigned) [Example 23]
